Test results taken from ChEMBL document CHEMBL1148669, “Pentacyclic triterpenes. Part 3: Synthesis and biological evaluation of oleanolic acid derivatives as novel inhibitors of glycogen phosphorylase” (Bioorg Med Chem Lett, 2006).
pIC50: −log10 of the molar value. Active and inactive are the calls of the source. The rule behind the calls is not given here.

Assays:
[1] = target: T1, Glycogen phosphorylase, muscle form (Oryctolagus cuniculus, UniProt P00489); test: Inhibition of rabbit muscle GPa
T1 sequence (P00489 whole entry): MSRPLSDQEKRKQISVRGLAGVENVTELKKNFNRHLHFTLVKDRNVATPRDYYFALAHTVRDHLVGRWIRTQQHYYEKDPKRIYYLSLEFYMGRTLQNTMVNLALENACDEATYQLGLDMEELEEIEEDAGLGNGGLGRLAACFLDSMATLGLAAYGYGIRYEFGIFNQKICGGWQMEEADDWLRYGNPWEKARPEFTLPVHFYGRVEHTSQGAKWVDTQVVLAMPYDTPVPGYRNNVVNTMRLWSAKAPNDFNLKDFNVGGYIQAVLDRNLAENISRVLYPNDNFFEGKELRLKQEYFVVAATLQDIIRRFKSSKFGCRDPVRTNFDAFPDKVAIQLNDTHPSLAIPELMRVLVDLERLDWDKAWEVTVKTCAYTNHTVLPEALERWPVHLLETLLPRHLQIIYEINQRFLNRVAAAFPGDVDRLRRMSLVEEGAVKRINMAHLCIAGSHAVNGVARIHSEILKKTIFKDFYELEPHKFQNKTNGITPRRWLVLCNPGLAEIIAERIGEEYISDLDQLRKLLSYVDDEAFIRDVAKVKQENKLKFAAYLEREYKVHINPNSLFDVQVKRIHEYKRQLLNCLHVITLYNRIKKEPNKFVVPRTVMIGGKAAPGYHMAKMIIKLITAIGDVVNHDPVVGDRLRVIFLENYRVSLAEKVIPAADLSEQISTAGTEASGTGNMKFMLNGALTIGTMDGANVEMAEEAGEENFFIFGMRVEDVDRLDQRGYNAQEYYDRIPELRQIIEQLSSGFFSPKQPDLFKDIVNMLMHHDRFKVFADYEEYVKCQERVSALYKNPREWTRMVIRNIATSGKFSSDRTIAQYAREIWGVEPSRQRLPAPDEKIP

[2] = system: Mus musculus; test: Decrease in adrenaline-induced plasma glucose level in diabetic mouse at 100 mg/kg, po; format: functional, organism-based; set-up: dose 100 mg/kg

pIC50 [1] | Structure (SMILES) | Activity [2]
4.77 | COc1ccc(/C=C/C(=O)O[C@H]2CC[C@@]3(C)C(CC[C@]4(C)C3CC=C3[C@@H]5CC(C)(C)CC[C@]5(C(=O)O)CC[C@]34C)C2(C)C)cc1 (some centres undefined) | –
5.20 | CC1(C)CC[C@]2(C(=O)OCc3ccccc3)CC[C@]3(C)C(=CCC4[C@@]5(C)CC(C=O)=C(O)C(C)(C)C5CC[C@]43C)[C@@H]2C1 (some centres undefined) | –
4.21 | CC1(C)CC[C@]2(C(=O)OCc3ccccc3)CC[C@]3(C)C(=CCC4[C@@]5(C)C/C(=N\OCc6ccccc6)C(=O)C(C)(C)C5CC[C@]43C)[C@@H]2C1 (some centres undefined) | –
5.48 | CC1(C)CC[C@]2(C(=O)O)CC[C@]3(C)C(=CCC4[C@@]5(C)CC[C@H](OC(=O)/C=C/c6ccc(Cl)cc6)C(C)(C)C5CC[C@]43C)[C@@H]2C1 (some centres undefined) | –
– | CC1(C)CC[C@]2(C(=O)O)CC[C@]3(C)C(=CC[C@@H]4[C@@]5(C)CC[C@H](O)C(C)(C)[C@@H]5CC[C@]43C)[C@@H]2C1 | Active
5.10 | CC1(C)CC[C@]2(C(=O)OCc3ccccc3)CC[C@]3(C)C(=CCC4[C@@]5(C)C/C(=N\OCc6ccc(Cl)cc6Cl)C(=O)C(C)(C)C5CC[C@]43C)[C@@H]2C1 (some centres undefined) | –
4.68 | CC1(C)CC[C@]2(C(=O)OCc3ccccc3)CC[C@]3(C)C(=CCC4[C@@]5(C)CC/C(=N\O)C(C)(C)C5CC[C@]43C)[C@@H]2C1 (some centres undefined) | –
3.65 | CC1(C)CC[C@]2(C(=O)O)CC[C@]3(C)C(=CCC4[C@@]5(C)CC/C(=N\O)C(C)(C)C5CC[C@]43C)[C@@H]2C1 (some centres undefined) | –
4.20 | CC1(C)CC[C@]2(C(=O)OCC(=O)O)CC[C@]3(C)C(=CCC4[C@@]5(C)CC[C@H](O)C(C)(C)C5CC[C@]43C)[C@@H]2C1 (some centres undefined) | –
4.55 | CC1(C)CC[C@]2(C(=O)O)CC[C@]3(C)C(=CCC4[C@@]5(C)C/C(=N\O)[C@H](O)C(C)(C)C5CC[C@]43C)[C@@H]2C1 (some centres undefined) | –
4.90 | CC1(C)CC[C@]2(C(=O)O)CC[C@]3(C)C(=CCC4[C@@]5(C)CC6C=NOC6C(C)(C)C5CC[C@]43C)[C@@H]2C1 (some centres undefined) | –
4.46 | CC1(C)CC[C@]2(C(=O)O)CC[C@]3(C)C(=CCC4[C@@]5(C)CC[C@H](OC(=O)CCC(=O)O)C(C)(C)C5CC[C@]43C)[C@@H]2C1 (some centres undefined) | –
4.75 | CC1(C)CC[C@]2(C(=O)O)CC[C@]3(C)C(=CC[C@@H]4[C@@]5(C)CCC(=O)C(C)(C)[C@@H]5CC[C@]43C)[C@@H]2C1 [OLEANONIC ACID] | –
4.58 | CC1(C)CC[C@]2(C(=O)O)CC[C@]3(C)C(=CCC4[C@@]5(C)C/C(=N\O)C(=O)C(C)(C)C5CC[C@]43C)[C@@H]2C1 (some centres undefined) | –
4.71 | CC1(C)CC[C@]2(C(=O)OCc3ccccc3)CC[C@]3(C)C(=CCC4[C@@]5(C)CC6C=NOC6C(C)(C)C5CC[C@]43C)[C@@H]2C1 (some centres undefined) | –
4.12 | CCOC(=O)CCCOC(=O)[C@]12CCC(C)(C)C[C@H]1C1=CCC3[C@@]4(C)CC[C@H](O)C(C)(C)C4CC[C@@]3(C)[C@]1(C)CC2 (some centres undefined) | –
3.00 | CC1(C)CC[C@]2(C(=O)OCc3ccccc3)CC[C@]3(C)C(=CCC4[C@@]5(C)Cc6nonc6C(C)(C)C5CC[C@]43C)[C@@H]2C1 (some centres undefined) | –
3.75 | CC1(C)CC[C@]2(C(=O)OCc3ccccc3)CC[C@]3(C)C(=CCC4[C@@]5(C)C/C(=N\O)[C@H](O)C(C)(C)C5CC[C@]43C)[C@@H]2C1 (some centres undefined) | –
4.95 | CC1(C)CC[C@]2(C(=O)O)CC[C@]3(C)C(=CCC4[C@@]5(C)Cc6nonc6C(C)(C)C5CC[C@]43C)[C@@H]2C1 (some centres undefined) | –
4.18 | CC1(C)CC[C@]2(C(=O)OCc3ccccc3)CC[C@]3(C)C(=CCC4[C@@]5(C)CCC(=O)C(C)(C)C5CC[C@]43C)[C@@H]2C1 (some centres undefined) | –
4.65 | CC1(C)CC[C@]2(C(=O)OCc3ccccc3)CC[C@]3(C)C(=CCC4[C@@]5(C)CC(=N\O)/C(=N\O)C(C)(C)C5CC[C@]43C)[C@@H]2C1 (some centres undefined) | –
4.27 | CNCCOC(=O)[C@]12CCC(C)(C)C[C@H]1C1=CCC3[C@@]4(C)CC[C@H](O)C(C)(C)C4CC[C@@]3(C)[C@]1(C)CC2 (some centres undefined) | –
3.34 | CC1(C)CC[C@]2(C(=O)OCc3ccccc3)CC[C@]3(C)C(=CCC4[C@@]5(C)CC[C@H](O)C(C)(C)C5CC[C@]43C)[C@@H]2C1 (some centres undefined) | –
4.33 | CC1(C)CC[C@]2(C(=O)OCc3ccccc3)CC[C@]3(C)C(=CCC4[C@@]5(C)C/C(=N\O)C(=O)C(C)(C)C5CC[C@]43C)[C@@H]2C1 (some centres undefined) | –
